These results are taken from the supplement of paper PMC10307832.

Common to all, as to assay: relative viability (nuclei count vs DMSO), 5 days (fraction); higher = more cells survive
Compound in the assay “BI-2536 + Bortezomib”: CC[C@@H]1C(=O)N(C)c2cnc(Nc3ccc(C(=O)NC4CCN(C)CC4)cc3OC)nc2N1C1CCCC1 [BI-2536] + CC(C)C[C@H](NC(=O)[C@H](Cc1ccccc1)NC(=O)c1cnccn1)B(O)O [Bortezomib] (partner 0.002 µM)
The procedure, abridged:
(§1)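 Each reported value is a median over duplicate plates. It expresses relative viability: treated-well nuclei count divided by vehicle-well nuclei count. Lung cancer cell lines in 1536-well plates were dosed by pin tool a day after seeding, alone with one drug or with a fixed anchor-drug dose plus five library-drug doses (not always all listed) in √10 steps, and nuclei were counted after 5 days.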

Compound in the assay “BI-2536 + Foretinib”: CC[C@@H]1C(=O)N(C)c2cnc(Nc3ccc(C(=O)NC4CCN(C)CC4)cc3OC)nc2N1C1CCCC1 [BI-2536] + COc1cc2c(Oc3ccc(NC(=O)C4(C(=O)Nc5ccc(F)cc5)CC4)cc3F)ccnc2cc1OCCCN1CCOCC1 [Foretinib] (partner 0.25 µM)
The method in brief: as §1

Compound in the assay “BI-2536 + Linsitinib”: CC[C@@H]1C(=O)N(C)c2cnc(Nc3ccc(C(=O)NC4CCN(C)CC4)cc3OC)nc2N1C1CCCC1 [BI-2536] + C[C@]1(O)C[C@@H](c2nc(-c3ccc4ccc(-c5ccccc5)nc4c3)c3c(N)nccn32)C1 [Linsitinib] (partner 1 µM)
The method in brief: as §1

Compound in assay [1]: CC1CC(=O)N(C2=CN=C(N=C2N1C3CCCC3)NC4=C(C=C(C=C4)C(=O)NC5CCN(CC5)C)OC)C [NPK76-II-72-1] + Cc1cc(Nc2cc(N3CCN(C)CC3)nc(Sc3ccc(NC(=O)C4CC4)cc3)n2)n[nH]1 [Tozasertib] (partner 0.1 µM)
The method in brief: as §1

For NCI-H596, the relative viability came out at 1.09 with BI-2536 + Bortezomib (first compound 0.01 µM); 1.18 in the assay with BI-2536 + Bortezomib (first compound 0.03162 µM); 0.759 with BI-2536 + Bortezomib (first compound 0.1 µM); 0.733 with BI-2536 + Bortezomib (first compound 0.3162 µM); 0.328 with BI-2536 + Bortezomib (first compound 1 µM); 0.642 in the assay with BI-2536 + Foretinib (first compound 0.01 µM). The relative viability with BI-2536 + Foretinib (first compound 0.03162 µM) was determined as 0.955; in the assay with BI-2536 + Foretinib (first compound 0.1 µM), 0.803; in the assay with BI-2536 + Foretinib (first compound 0.3162 µM), 0.292; with BI-2536 + Foretinib (first compound 1 µM), 0.205; in the assay with BI-2536 + Linsitinib (first compound 0.01 µM), 1.09; with BI-2536 + Linsitinib (first compound 0.03162 µM), 1.1. The relative viability with BI-2536 + Linsitinib (first compound 0.1 µM) was found to be 1.11; with BI-2536 + Linsitinib (first compound 0.3162 µM) it was 0.363; with BI-2536 + Linsitinib (first compound 1 µM) it was 0.39; in assay [1] (first compound 0.01 µM) it was 0.868; in assay [1] (first compound 0.03162 µM), 1.07; in assay [1] (first compound 0.1 µM), 0.832. Further, the relative viability came to 0.921 in assay [1] (first compound 0.3162 µM) and 1.04 in assay [1] (first compound 1 µM).

Regarding A-427, the relative viability with BI-2536 + Bortezomib (first compound 0.01 µM) amounted to 0.955; with BI-2536 + Bortezomib (first compound 0.03162 µM), 1.04; with BI-2536 + Bortezomib (first compound 0.1 µM), 0.763; with BI-2536 + Bortezomib (first compound 0.3162 µM) it was 0.123; with BI-2536 + Bortezomib (first compound 1 µM) it was 0.1; with BI-2536 + Foretinib (first compound 0.01 µM), 1.02. In addition, the relative viability with BI-2536 + Foretinib (first compound 0.03162 µM) was 0.919; in the assay with BI-2536 + Foretinib (first compound 0.1 µM), 1.08; with BI-2536 + Foretinib (first compound 0.3162 µM), 0.166; with BI-2536 + Foretinib (first compound 1 µM) it was 0.148; in the assay with BI-2536 + Linsitinib (first compound 0.01 µM) it was 1.15; with BI-2536 + Linsitinib (first compound 0.03162 µM) it was 1.23. Further, the relative viability with BI-2536 + Linsitinib (first compound 0.1 µM) amounted to 1.08; with BI-2536 + Linsitinib (first compound 0.3162 µM), 1.13; with BI-2536 + Linsitinib (first compound 1 µM), 0.304; in assay [1] (first compound 0.01 µM), 0.222; in assay [1] (first compound 0.03162 µM), 0.23; in assay [1] (first compound 0.1 µM), 0.207. The relative viability stood at 0.192 in assay [1] (first compound 0.3162 µM) and 0.252 in assay [1] (first compound 1 µM).

EMC-BAC-2: the relative viability with BI-2536 + Bortezomib (first compound 0.01 µM) is 1.08; with BI-2536 + Bortezomib (first compound 0.03162 µM) it was 1.11; with BI-2536 + Bortezomib (first compound 0.1 µM), 1.06; in the assay with BI-2536 + Bortezomib (first compound 0.3162 µM), 0.628; with BI-2536 + Bortezomib (first compound 1 µM) it was 0.172; with BI-2536 + Foretinib (first compound 0.01 µM) it was 1.03. For the same cell line, the relative viability with BI-2536 + Foretinib (first compound 0.03162 µM) is 1.18; with BI-2536 + Foretinib (first compound 0.1 µM), 0.947; with BI-2536 + Foretinib (first compound 0.3162 µM) it was 0.202; with BI-2536 + Foretinib (first compound 1 µM), 0.194; in the assay with BI-2536 + Linsitinib (first compound 0.01 µM) it was 0.852; in the assay with BI-2536 + Linsitinib (first compound 0.03162 µM), 0.866. Moreover, the relative viability stood at 0.872 in the assay with BI-2536 + Linsitinib (first compound 0.1 µM); 0.444 in the assay with BI-2536 + Linsitinib (first compound 0.3162 µM); 0.236 in the assay with BI-2536 + Linsitinib (first compound 1 µM); 0.298 in assay [1] (first compound 0.01 µM); 0.339 in assay [1] (first compound 0.03162 µM); 0.296 in assay [1] (first compound 0.1 µM). The relative viability was determined as 0.294 in assay [1] (first compound 0.3162 µM) and 0.316 in assay [1] (first compound 1 µM).

Regarding NCI-H441, the relative viability in the assay with BI-2536 + Bortezomib (first compound 0.01 µM) stood at 0.333; in the assay with BI-2536 + Bortezomib (first compound 0.03162 µM), 0.719; in the assay with BI-2536 + Bortezomib (first compound 0.1 µM), 0.209; with BI-2536 + Bortezomib (first compound 0.3162 µM), 0.152; with BI-2536 + Bortezomib (first compound 1 µM), 0.177; with BI-2536 + Foretinib (first compound 0.01 µM) it was 0.918. Further, the relative viability amounted to 0.673 with BI-2536 + Foretinib (first compound 0.03162 µM); 0.261 in the assay with BI-2536 + Foretinib (first compound 0.1 µM); 0.194 in the assay with BI-2536 + Foretinib (first compound 0.3162 µM); 0.222 with BI-2536 + Foretinib (first compound 1 µM); 0.521 in the assay with BI-2536 + Linsitinib (first compound 0.01 µM); 0.575 with BI-2536 + Linsitinib (first compound 0.03162 µM). Besides, the relative viability in the assay with BI-2536 + Linsitinib (first compound 0.1 µM) was 0.321; in the assay with BI-2536 + Linsitinib (first compound 0.3162 µM) it was 0.126; with BI-2536 + Linsitinib (first compound 1 µM), 0.133; in assay [1] (first compound 0.01 µM) it was 0.825; in assay [1] (first compound 0.03162 µM), 0.659; in assay [1] (first compound 0.1 µM), 0.635. Also, the relative viability in assay [1] (first compound 0.3162 µM) turned out to be 0.619; in assay [1] (first compound 1 µM), 0.721.

As for LCLC-103H, the relative viability with BI-2536 + Bortezomib (first compound 0.01 µM) was found to be 1.05; in the assay with BI-2536 + Bortezomib (first compound 0.03162 µM), 1.07; with BI-2536 + Bortezomib (first compound 0.1 µM), 0.813; in the assay with BI-2536 + Bortezomib (first compound 0.3162 µM), 0.986; in the assay with BI-2536 + Bortezomib (first compound 1 µM) it was 0.19; with BI-2536 + Foretinib (first compound 0.01 µM), 0.802. Moreover, the relative viability with BI-2536 + Foretinib (first compound 0.03162 µM) amounted to 0.854; in the assay with BI-2536 + Foretinib (first compound 0.1 µM), 0.618; with BI-2536 + Foretinib (first compound 0.3162 µM) it was 0.161; with BI-2536 + Foretinib (first compound 1 µM) it was 0.153; with BI-2536 + Linsitinib (first compound 0.01 µM), 1.16; with BI-2536 + Linsitinib (first compound 0.03162 µM), 1.04. In addition, the relative viability in the assay with BI-2536 + Linsitinib (first compound 0.1 µM) stood at 1.05; with BI-2536 + Linsitinib (first compound 0.3162 µM) it was 0.942; with BI-2536 + Linsitinib (first compound 1 µM) it was 0.143; in assay [1] (first compound 0.01 µM), 0.46; in assay [1] (first compound 0.03162 µM) it was 0.508; in assay [1] (first compound 0.1 µM) it was 0.437. Moreover, the relative viability in assay [1] (first compound 0.3162 µM) came out at 0.466; in assay [1] (first compound 1 µM), 0.488.

As for HCC-827, the relative viability with BI-2536 + Bortezomib (first compound 0.01 µM) worked out at 1.07; with BI-2536 + Bortezomib (first compound 0.03162 µM), 0.971; in the assay with BI-2536 + Bortezomib (first compound 0.1 µM), 0.974; with BI-2536 + Bortezomib (first compound 0.3162 µM) it was 0.638; with BI-2536 + Bortezomib (first compound 1 µM), 0.377; in the assay with BI-2536 + Foretinib (first compound 0.01 µM), 1.03. The relative viability in the assay with BI-2536 + Foretinib (first compound 0.03162 µM) is 0.958; with BI-2536 + Foretinib (first compound 0.1 µM), 0.86; with BI-2536 + Foretinib (first compound 0.3162 µM) it was 0.254; with BI-2536 + Foretinib (first compound 1 µM), 0.234; with BI-2536 + Linsitinib (first compound 0.01 µM), 1.08; in the assay with BI-2536 + Linsitinib (first compound 0.03162 µM), 1.01. The relative viability stood at 0.947 with BI-2536 + Linsitinib (first compound 0.1 µM); 0.796 in the assay with BI-2536 + Linsitinib (first compound 0.3162 µM); 0.268 in the assay with BI-2536 + Linsitinib (first compound 1 µM); 0.399 in assay [1] (first compound 0.01 µM); 0.416 in assay [1] (first compound 0.03162 µM); 0.417 in assay [1] (first compound 0.1 µM). Also, the relative viability in assay [1] (first compound 0.3162 µM) is 0.409; in assay [1] (first compound 1 µM), 0.476.
